Assay [1] relates to Z-138 cells. The assay can be described thus: Z-138 Proliferation Assay (Cell Titer Glo, 5 days). The class given is cell-based. To be noted: Homo sapiens, Table D-2. In short, it runs like this:
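Exponentially growing Z-138 cells (10,000 cells/ml) in RPMI 1640 with 10% FBS are exposed to nine-point 3-fold dilutions (final top concentration 20 μM, 0.2% DMSO) for 5 days at 37° C. Viability is measured as ATP by CellTiter-Glo luminescence. The 50% inhibitory concentration comes from a 4-parameter fit.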
(In general: Cellular ATP, detected with luciferase, serves as a proxy for viable cell number.)

In assay [2] the test system is Z-138 cells. Nature of the assay: Z-138 Methylation Assay (In Cell Western for symmetric di-methyl arginine and DNA content). To be noted: Homo sapiens, Table D-2, read-out: ICW EC50. The class given is cell-based. The gist of the method: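 Symmetric di-methyl arginine signal (800 nm) ratioed to DNA content (700 nm) by In Cell Western after four days of compound treatment of Z-138 suspension cells seeded at 50,000 cells/mL. Percent inhibition set between DMSO and 3 μM reference wells; IC50 curves from triplicates.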

This is an account of results in patent US20150344457A1, “METHODS OF INHIBITING PRMT5” (EPIZYME, INC., priority 2012, published 2015).

One may read the EC50 as the concentration at which the effect is half-maximal.

Some results are limits rather than exact numbers.

In the case of `Cn1ccc2cnc(-c3ccnc(NCC(O)CN4CCc5ccccc5C4)c3)nc21` (stereo not shown) [Compound D239], the EC50 with Z-138 cells [1] was 1 to 10 µM; with Z-138 cells [2], under 0.1 µM.

In the case of `OC(COc1cccc(-c2cccc3[nH]cnc23)c1)CN1CCc2ccccc2C1` (stereo not shown) [Compound D223], the values for the EC50 in the assay with Z-138 cells [1] and with Z-138 cells [2] were 10 to 40 µM and 0.101 to 1 µM, respectively.

In the case of `O=C(Cn1ccc2cnc(-c3ccnc(NCC(O)CN4CCc5ccccc5C4)c3)nc21)N1CCOCC1` (stereo not shown) [Compound D234], the EC50 was 0.101 to 1 µM with Z-138 cells [1] and under 0.1 µM with Z-138 cells [2].

With `OC(COc1cccc(-c2ccc3ncn(C4COC4)c3c2)c1)CN1CCc2ccccc2C1` (stereo not shown) [Compound D269], the results for the EC50 in the assay with Z-138 cells [1] and with Z-138 cells [2] were 10 to 40 µM and 0.101 to 1 µM, respectively.

With `OC(COc1cccc(-c2ccc3ncn(C4CNC4)c3c2)c1)CN1CCc2ccccc2C1` (stereo not shown) [Compound D208], the EC50 in the assay on Z-138 cells [1] and in the assay on Z-138 cells [2] was 1 to 10 µM each time.

Consider `OC(CNc1cc(-c2ncc3ccn(C4CNC4)c3n2)ccn1)CN1CCc2ccccc2C1` (stereo not shown) [Compound D254], for which the values for the EC50 in the assay on Z-138 cells [1] and in the assay on Z-138 cells [2] were 1 to 10 µM and 0.101 to 1 µM, respectively.

Turning to `CC(=O)N1CCC(n2cnc3ccc(-c4ccnc(NCC(O)CN5CCc6ccccc6C5)c4)cc32)CC1` (stereo not shown) [Compound D242], the figures for the EC50 in the assay on Z-138 cells [1] and in the assay with Z-138 cells [2] were 1 to 10 µM and 0.101 to 1 µM, respectively.

On to `O=C(Cn1cnc2ccc(-c3cccc(OCC(O)CN4CCc5ccccc5C4)c3)cc21)N1CCCC1` (stereo not shown) [Compound D263], for which the figures for the EC50 in the assay with Z-138 cells [1] and with Z-138 cells [2] were 10 to 40 µM and 0.101 to 1 µM, respectively.

Regarding `Cn1cnc2cc(-c3cc(NCC(O)CN4CCc5ccccc5C4)n[nH]3)ccc21` (stereo not shown) [Compound D272], the EC50 in the assay on Z-138 cells [1] fell in the range of 1 to 10 µM; with Z-138 cells [2], 0.101 to 1 µM.

As to `OC(COc1cccc(-c2ncc3ccn(C4CCNCC4)c3n2)c1)CN1CCc2ccccc2C1` (stereo not shown) [Compound D253], the EC50 with Z-138 cells [1] lay within 1 to 10 µM; in the assay on Z-138 cells [2] it was 0.101 to 1 µM.

For `OC(COc1cccc(-c2cc(C(F)(F)F)ccc2Cl)c1)CN1CCc2ccccc2C1` (stereo not shown) [Compound D62], the EC50 in the assay with Z-138 cells [1] was in the range of 10 to 40 µM; in the assay on Z-138 cells [2], 1 to 10 µM.

With `OC(COc1cccc(-c2ccc3c(c2)OCO3)c1)CN1CCc2ccccc2C1` (stereo not shown) [Compound D59], the EC50 in the assay with Z-138 cells [1] and in the assay with Z-138 cells [2] was 10 to 40 µM throughout.

As to `CN1CCN(C(=O)Cn2ccc3cnc(-c4ccnc(NCC(O)CN5CCc6ccccc6C5)c4)nc32)CC1` (stereo not shown) [Compound D247], the figures for the 50% effective concentration (EC50) in the assay with Z-138 cells [1] and in the assay on Z-138 cells [2] were 1 to 10 µM and under 0.1 µM, respectively.

For the compound `O=C(Cn1ccc2cnc(-c3ccnc(NCC(O)CN4CCc5ccccc5C4)c3)nc21)N1CCCC1` (stereo not shown) [Compound D233], the EC50 is 1 to 10 µM in the assay with Z-138 cells [1] and under 0.1 µM in the assay with Z-138 cells [2].

With `O=C(Cn1cnc2ccc(-c3cccc(OCC(O)CN4CCc5ccccc5C4)c3)cc21)N1CCCCC1` (stereo not shown) [Compound D249], the EC50 in the assay with Z-138 cells [1] fell in the range of 10 to 40 µM; with Z-138 cells [2], 0.101 to 1 µM.

As for `CC(C)n1cnc2ccc(-c3cccc(OCC(O)CN4CCc5ccccc5C4)c3)cc21` (stereo not shown) [Compound D81], the EC50 with Z-138 cells [1] was in the range of 10 to 40 µM; in the assay on Z-138 cells [2], 0.101 to 1 µM.

On to `Cn1ccc2ccc(-c3cc(NCC(O)CN4CCc5ccccc5C4)ncn3)cc21` (stereo not shown) [Compound D237], for which the EC50 in the assay on Z-138 cells [1] was in the range of 10 to 40 µM; with Z-138 cells [2], 0.101 to 1 µM.

For `OC(COc1cccc(-c2ccccc2Cl)c1)CN1CCc2ccccc2C1` (stereo not shown) [Compound D92], the EC50 with Z-138 cells [1] was in the range of 10 to 40 µM; in the assay on Z-138 cells [2], 1 to 10 µM.

Take `OC(CNc1cccc(-c2cccc3[nH]cnc23)c1)CN1CCc2ccccc2C1` (stereo not shown) [Compound D235]: the EC50 lay in the range of 10 to 40 µM in the assay on Z-138 cells [1] and 0.101 to 1 µM with Z-138 cells [2].

`Cc1ncc2ccc(-c3cccc(OCC(O)CN4CCc5ccccc5C4)c3)cn12` (stereo not shown) [Compound D266]: the EC50 in the assay with Z-138 cells [1] and in the assay on Z-138 cells [2] was 1 to 10 µM in each case.

With `OC(COc1cccc(-c2ccc3c(c2)OCCO3)c1)CN1CCc2ccccc2C1` (stereo not shown) [Compound D85], the EC50 lay in the range of 10 to 40 µM in the assay with Z-138 cells [1] and 1 to 10 µM with Z-138 cells [2].

`COc1ccc(-c2cccc(OCC(O)CN3CCc4ccccc4C3)c2)c(C)c1` (stereo not shown) [Compound D90]: the EC50 lay in the range of 10 to 40 µM in the assay on Z-138 cells [1] and 1 to 10 µM with Z-138 cells [2].

Consider `O=C(Cn1ccc2cnc(-c3cccc(OCC(O)CN4CCc5ccccc5C4)c3)nc21)N1CCOCC1` (stereo not shown) [Compound D222], for which the EC50 with Z-138 cells [1] fell in the range of 10 to 40 µM; in the assay on Z-138 cells [2] it was 0.101 to 1 µM.

As for `OC(COc1cccc(-c2ccc3ncn(C4CCNCC4)c3c2)c1)CN1CCc2ccccc2C1` (stereo not shown) [Compound D220], the EC50 is 1 to 10 µM in the assay on Z-138 cells [1] and 0.101 to 1 µM with Z-138 cells [2].

On to `COc1ccc(-c2cccc(OCC(O)CN3CCc4ccccc4C3)c2)cc1` (stereo not shown) [Compound D75], for which the values for the EC50 in the assay on Z-138 cells [1] and in the assay with Z-138 cells [2] were 10 to 40 µM and 1 to 10 µM, respectively.

Regarding `COc1ccc(Cn2cnc3ccc(-c4cccc(OCC(O)CN5CCc6ccccc6C5)c4)cc32)cc1` (stereo not shown) [Compound D82], the values for the EC50 with Z-138 cells [1] and in the assay with Z-138 cells [2] were 10 to 40 µM and 1 to 10 µM, respectively.

As for `CC(Oc1cccc(CNC2CCCC2)c1)C(O)CN1CCc2ccccc2C1` (stereo not shown) [Compound D49], the EC50 lay within 1 to 10 µM with Z-138 cells [1] and 0.101 to 1 µM in the assay with Z-138 cells [2].

With `O=C(Cn1cnc2ccc(-c3cccc(OCC(O)CN4CCc5ccccc5C4)c3)cc21)N1CCOCC1` (stereo not shown) [Compound D264], the EC50 in the assay with Z-138 cells [1] and in the assay with Z-138 cells [2] was 1 to 10 µM each time.

On to `OC(COc1cccc(-c2cnc3ccccc3c2)c1)CN1CCc2ccccc2C1` (stereo not shown) [Compound D89], for which the EC50 was 10 to 40 µM with Z-138 cells [1] and 1 to 10 µM in the assay with Z-138 cells [2].

As for `CN1CC(n2cnc3ccc(-c4cccc(OCC(O)CN5CCc6ccccc6C5)c4)cc32)C1` (stereo not shown) [Compound D218], the EC50 fell in the range of 1 to 10 µM with Z-138 cells [1] and 0.101 to 1 µM with Z-138 cells [2].

As for `CS(=O)(=O)c1ccc(-c2cccc(OCC(O)CN3CCc4ccccc4C3)c2)cc1` (stereo not shown) [Compound D63], the EC50 in the assay on Z-138 cells [1] lay within 10 to 40 µM; in the assay on Z-138 cells [2], 1 to 10 µM.

As for `Cn1cnc2ccc(-c3ccnc(NC[C@H](O)CN4CCc5ccccc5C4)c3)cc21` [Compound D275], the EC50 was 1 to 10 µM with Z-138 cells [1] and 0.101 to 1 µM in the assay on Z-138 cells [2].

As to `CNC(=O)Cn1ccc2cnc(-c3ccnc(NCC(O)CN4CCc5ccccc5C4)c3)nc21` (stereo not shown) [Compound D245], the EC50 lay within 1 to 10 µM in the assay with Z-138 cells [1] and 0.101 to 1 µM in the assay with Z-138 cells [2].

Regarding `OCc1cccc(-c2cccc(OCC(O)CN3CCc4ccccc4C3)c2)c1` (stereo not shown) [Compound D72], the EC50 in the assay with Z-138 cells [1] is 10 to 40 µM; in the assay on Z-138 cells [2], 1 to 10 µM.

With `Cn1cc2ccc(-c3cccc(OCC(O)CN4CCc5ccccc5C4)c3)nc2n1` (stereo not shown) [Compound D210], the EC50 lay in the range of 10 to 40 µM in the assay with Z-138 cells [1] and 0.101 to 1 µM in the assay on Z-138 cells [2].

As for `OC(COc1cccc(-c2ccccc2)c1)CN1CCc2ccccc2C1` (stereo not shown) [Compound D43], the EC50 in the assay on Z-138 cells [1] is over 20 µM; with Z-138 cells [2], 1 to 10 µM.

For `Cn1ncc2cnc(-c3cccc(OCC(O)CN4CCc5ccccc5C4)c3)cc21` (stereo not shown) [Compound D248], the half-maximal effective concentration (EC50) in the assay on Z-138 cells [1] is 10 to 40 µM; with Z-138 cells [2], 0.101 to 1 µM.

In the case of `OC(COc1cccc(-c2cccc(F)c2F)c1)CN1CCc2ccccc2C1` (stereo not shown) [Compound D68], the EC50 in the assay on Z-138 cells [1] and with Z-138 cells [2] was 10 to 40 µM each time.

On to `OC(CNc1cc(-c2ccc3ncn(C4COC4)c3c2)ccn1)CN1CCc2ccccc2C1` (stereo not shown) [Compound D265], for which the EC50 with Z-138 cells [1] is 1 to 10 µM; in the assay on Z-138 cells [2], 0.101 to 1 µM.

As for `COc1cccc(-c2cccc(OCC(O)CN3CCc4ccccc4C3)c2)c1` (stereo not shown) [Compound D74], the EC50 lay within 10 to 40 µM in the assay on Z-138 cells [1] and 1 to 10 µM in the assay with Z-138 cells [2].

As for `OC(COc1cccc(-c2cccc3c2oc2ccccc23)c1)CN1CCc2ccccc2C1` (stereo not shown) [Compound D86], the 50% effective concentration (EC50) in the assay on Z-138 cells [1] lay in the range of 10 to 40 µM; in the assay on Z-138 cells [2] it was 1 to 10 µM.
